In patent US20200157135A1, “SIDE-CHAIN MODIFIED ERGOSTEROL AND STIGMASTEROL DERIVATIVES AS LIVER X RECEPTOR MODULATORS” (Ospedale San Raffaele srl, priority 2017, published 2020):

Legend:
[1] = molecular target: T1, hLXRα (Homo sapiens, UniProt Q13133); experiment: luciferase assay with GAL-4 chimeric hLXRα receptor in human embryonic kidney 293 cells; assay type: cell-based
T1 sequence (Q13133 209-447 limits assumed): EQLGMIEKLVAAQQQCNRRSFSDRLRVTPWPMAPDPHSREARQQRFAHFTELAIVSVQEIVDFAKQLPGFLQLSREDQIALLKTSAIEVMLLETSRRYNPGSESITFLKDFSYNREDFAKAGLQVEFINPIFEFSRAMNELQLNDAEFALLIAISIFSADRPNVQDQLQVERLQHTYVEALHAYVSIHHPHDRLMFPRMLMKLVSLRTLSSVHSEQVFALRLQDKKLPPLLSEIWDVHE
Protocol: (§1) All the synthesized compounds were first tested for their ability to activate LXRs by using luciferase assays with GAL-4 chimeric receptors. These were performed by co-transfecting plasmids encoding hLXRα- and β-binding domains fused to GAL-4, with the respective responsive element conjugated with the luciferase reporter gene into the human embryonic kidney 293 cells.
(§2) Cell Culture and Co-transfection Assays. Human embryonic Kidney 293 cells (American Type Culture Collection) were cultured in Dulbecco's Modified Eagle's medium containing 10% of fetal bovine serum at 37° C. in humidified atmosphere of 5% CO2. HEK293 cells (4×10^4 cells per well) were transiently transfected in 48 well plate with the reporter plasmids pMH100X4-TK-luc (100 ng/well), Renilla (22 ng/well) together with 100 ng/well of pCMX-Gal4-RXR, pCMX-Gal4-PPAR-γ, pCMX-Gal4-PXR, pFA-CMV-FXR pCMX-Gal4-LXR-α or pCMX-Gal4-LXR-β plasmids using X-tremeGENE 9 DNA Transfection Reagent (Roche). Six hours after transfection, the cells were treated with the appropriate compound for 24 hours. Luciferase activities were analyzed by luciferase Dual Reporter Assay Systems (Promega) according to the manufacturer's protocol. GAL4-LXRs, GAL4-PPAR-γ, GAL4-RXR and TK-MHC100-luc plasmids were described in Villablanca et al.49 GAL4-PXR was a kind gift of Dr. Enrique Sainz (The Scripps Research Institute, La Jolla, USA). GAL4-FXR was a kind gift of Dr. Daniel Merk (Goethe-University Frankfurt am Main). The results obtained by luciferase assays and reported in Table 1 are from three to five independent experiments.
(§3) Statistical analysis. Data are expressed as mean±SEM and were analyzed for significance by ANOVA with Dunnet's multiple comparison tests. The analysis was performed with Prism software. Data in Table 1 are expressed as EC50±SD. In particular, the standard deviations were obtained by calculating the mean of the EC50 of each experiment (three to five independent experiments). The efficacy (%) of the compounds was calculated as the percentage of the compound effect, in terms of LXRα or β activation, versus 8 μM of 22R—HC±SD. The analyses were performed with Prism software.

[2] = molecular target: T2, hLXRβ (Homo sapiens, UniProt P55055); experiment: luciferase assay with GAL-4 chimeric hLXRβ receptor in human embryonic kidney 293 cells; assay type: cell-based
T2 sequence (P55055 222-460 limits assumed): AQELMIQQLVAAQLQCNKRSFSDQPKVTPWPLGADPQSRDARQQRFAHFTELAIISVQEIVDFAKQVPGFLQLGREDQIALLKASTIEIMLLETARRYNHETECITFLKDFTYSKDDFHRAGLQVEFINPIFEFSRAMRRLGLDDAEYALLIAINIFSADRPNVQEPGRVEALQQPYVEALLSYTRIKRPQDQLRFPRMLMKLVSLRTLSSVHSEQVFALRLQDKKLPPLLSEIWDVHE
Protocol: as §1, §2, §3

[3] = system: FASN; experiment: qPCR of FASN expression in PMA-differentiated U937 cells; assay type: cell-based, human; conditions: U937 differentiated with PMA 72 h; 10 μM, 6 hours
Protocol: (§4) U937 cells differentiated with PMA for 72 hours were treated with T0901317 (10 μM), 22R—HC (3) or with the tested compound (10 μM). […] (n=3/group). *p<0.05, **p<0.01, ***p<0.001.
LXR agonists induce the expression of target genes, which are involved in cholesterol homeostasis, particularly in the reverse cholesterol transport pathway.43 Indeed, LXR agonists induce the expression of ABCA1 both in macrophages and in many tissues of the periphery such as the intestine.44 Moreover, ABCA1 regulates cholesterol efflux to APOAI acceptors.45 In the liver, LXR activation promotes the biosynthesis of fatty acids, a process also termed as de novo lipogenesis by inducing the expression of the master regulator of hepatic lipogenesis sterol-regulatory element-binding protein 1C (SREBP-1c), as well as several downstream genes in the SREBP-1c pathway, including steroyl CoA desaturase 1 (SCD1) and fatty acid synthase (FASN).43 Therefore, it was investigated, by quantitative PCR (qPCR), the expression of ABCA1, SREBP1c, FASN, and SCD1, by using RNA from monocytic U937 cells (FIG. 3) and from hepatic HepG2 cells (FIG. 4) stimulated with our compounds, the non-steroidal agonist T0901317 or the endogenous ligand 22R—HC (3) as positive controls. […] Then, the induction of genes involved in the lipogenesis using the hepatic cell line HepG2. 43,22 was evaluated. […]
Quantitative Real-Time-PCR. […]

[4] = system: SCD1; experiment: qPCR of SCD1 expression in PMA-differentiated U937 cells; assay type: cell-based, human; conditions: U937 differentiated with PMA 72 h; 10 μM, 6 hours
Protocol: as §4
LXR agonists induce the expression of target genes, which are involved in cholesterol homeostasis, particularly in the reverse cholesterol transport pathway.43 Indeed, LXR agonists induce the expression of ABCA1 both in macrophages and in many tissues of the periphery such as the intestine.44 Moreover, ABCA1 regulates cholesterol efflux to APOAI acceptors.45 In the liver, LXR activation promotes the biosynthesis of fatty acids, a process also termed as de novo lipogenesis by inducing the expression of the master regulator of hepatic lipogenesis sterol-regulatory element-binding protein 1C (SREBP-1c), as well as several downstream genes in the SREBP-1c pathway, including steroyl CoA desaturase 1 (SCD1) and fatty acid synthase (FASN).43 Therefore, it was investigated, by quantitative PCR (qPCR), the expression of ABCA1, SREBP1c, FASN, and SCD1, by using RNA from monocytic U937 cells (FIG. 3) and from hepatic HepG2 cells (FIG. 4) stimulated with our compounds, the non-steroidal agonist T0901317 or the endogenous ligand 22R—HC (3) as positive controls. […] Then, the induction of genes involved in the lipogenesis using the hepatic cell line HepG2. 43,22 was evaluated. […] Over the time, indeed, substantial efforts have been dedicated to the identification of LXR ligands able to turning on ABC transporter genes, without affecting lipogenic genes levels. This task is still one of the major challenge to the discovery of a clinically useful LXR modulator for atherosclerosis.
Quantitative Real-Time-PCR. U937 cell line was differentiated in foam macrophages with phorbol 12-myristate 13-acetate (PMA) 10 ng/ml (Sigma) for 72 hours at 37° C. in […] at the concentration of 3×10^6 cells in 10 ml RPMI 10% FBS. At day 3 nuclear receptor ligands were added for 6 hours. HepG2 cells were treated with the ligands as described by Quinet et al.22 Total RNA was purified by TRIZOL (Invitrogen, Carlsbad, Calif., USA). Reverse transcription was performed incubating 2 μg of total RNA 1 hour at 42° C. with MLV-reverse transcriptase (Promega). Quantitative PCR was performed using Sybr Green Master Mix (Applied Biosystems) and real-time PCR (Viia 7 Real Time PCR System, Applied Biosystems). All PCR reactions were done in triplicate. The comparative Ct method was used to quantify transcripts that were normalized for human GAPDH. the following primer pairs were used: […]

Row | melting point | SMILES | EC50 ([1]; GAL4-hLXRα luciferase, HEK293, dose-response 32-1 μM, mean of three-five independent experiments, read-out: LXRα EC50 (μM) ± SD) | Emax ([1]; HEK293, 24 h, read-out: LXRα Efficacy (%) ± SD) | EC50 ([2]; GAL4-hLXRβ luciferase, HEK293, dose-response 32-1 μM, mean of three-five independent experiments, read-out: LXRβ EC50 (μM) ± SD) | Emax ([2]; HEK293, 24 h, read-out: LXRβ Efficacy (%) ± SD, % of compound effect versus 8 μM of 22R-HC) | FASN mRNA levels [3] | SCD1 expression [4]
1 | 117.3 to 121 °C | CC(C)[C@@H](C)C[C@@H](O)[C@@H](C)[C@H]1CC[C@H]2C3=CC=C4C[C@@H](O)CC[C@]4(C)[C@H]3CC[C@]12C | – | – | – | – | – | –
2 | – | CC(C)CC[C@@H](O)[C@@H](C)[C@H]1CC[C@H]2[C@@H]3CC=C4C[C@@H](O)CC[C@]4(C)[C@H]3CC[C@]12C [22R-HC (3), 22(R)-hydroxycholesterol, reference compound] | 6.71 ± 0.71 µM | 100% | 4.75 ± 0.12 µM | 100% | did not induce up-regulation of FASN and SCD1 transcripts | did not induce up-regulation of FASN and SCD1 transcripts
